For seven compounds, IC50 results are on record in USRE50528E1, “Compounds and compositions for modulating EGFR mutant kinase activities” (Yuhan Corporation, priority 2014, dated 2025).

Each structure is given as a SMILES string. pIC50: −log10 of the molar value.

In test [1] the target is T1, EGFR mutant Del19/T790M (Homo sapiens, UniProt P00533, DEL746-750/T790M).
T1 construct: truncated human JAK3, EGFR mutants such as del E746-A750; purchased Carna Biosciences
Description: Kinase inhibition assay, EGFR del E746-A750/T790M. The conditions noted are these: read-out: EGFR mutants Del19/T790M. In kind it is biochemical.

Test [2] deals with T2, SYK (Homo sapiens, UniProt P43405).
T2 construct: Purified human, full-length SYK, KDR; purchased Carna Biosciences
Description: Kinase inhibition assay, SYK.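 Further: purified full-length human SYK pre-incubated 30 min with compound, then ULight-TK peptide phosphorylation for 1 h, detected with Europium-labeled antibody in Lance buffer.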 As to conditions: biochemical potency. The format is biochemical.

Test [3] concerns the target T3, EGFR mutant T790M (Homo sapiens, UniProt P00533, T790M).
T3 construct: truncated human JAK3, EGFR mutants such as del E746-A750; purchased Carna Biosciences
Description: Kinase inhibition assay, EGFR mutant T790M.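 Further: truncated human EGFR mutant enzyme preincubated two hours with compound, then ATP plus ULight-PolyGT peptide for one hour, Europium-labeled antibody LANCE detection, IC50.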 The conditions noted are these: biochemical potency.

In test [4] the target is T4, EGFR mutant Del19 (E746-A750) (Homo sapiens, UniProt P00533, DEL746-750).
T4 construct: truncated human JAK3, EGFR mutants such as del E746-A750; purchased Carna Biosciences
T4 sequence (P00533 with tags, fused parts or gaps DEL746-750 limits assumed): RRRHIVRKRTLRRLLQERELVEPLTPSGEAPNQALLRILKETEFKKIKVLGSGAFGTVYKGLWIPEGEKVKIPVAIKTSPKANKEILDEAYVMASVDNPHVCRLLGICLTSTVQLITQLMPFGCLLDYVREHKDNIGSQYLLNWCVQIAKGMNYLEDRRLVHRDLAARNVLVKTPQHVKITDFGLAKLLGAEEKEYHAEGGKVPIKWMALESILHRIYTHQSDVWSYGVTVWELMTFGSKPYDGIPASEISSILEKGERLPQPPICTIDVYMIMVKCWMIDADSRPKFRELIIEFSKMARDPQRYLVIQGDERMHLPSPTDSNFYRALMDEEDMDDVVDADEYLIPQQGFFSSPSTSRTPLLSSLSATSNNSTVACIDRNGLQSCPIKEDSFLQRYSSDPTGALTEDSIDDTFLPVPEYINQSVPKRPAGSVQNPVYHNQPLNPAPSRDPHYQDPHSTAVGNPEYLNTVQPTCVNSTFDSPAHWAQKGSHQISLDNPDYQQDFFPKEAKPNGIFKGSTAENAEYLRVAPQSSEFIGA
The test is described as follows: Kinase inhibition assay, EGFR del E746-A750.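 Further: truncated human EGFR mutant kinase, two-hour preincubation with compound, then one-hour reaction with ATP and ULight-PolyGT peptide, LANCE Europium-antibody phosphorylation readout, IC50.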 The format is biochemical. The conditions noted are these: read-out: EGFR mutants Del19 (E746-A750).

Test [5] has as its target T5, EGFR mutant L858R/T790M (Homo sapiens, UniProt P00533, L858R/T790M).
T5 construct: truncated human JAK3, EGFR mutants such as del E746-A750; purchased Carna Biosciences
Description: Kinase inhibition assay, EGFR L858R/T790M.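 Further: truncated human enzyme preincubated two hours with compound, then one hour with one millimolar ATP and ULight-PolyGT peptide, Europium-labeled antibody detection, IC50.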 The format is biochemical. As to conditions: read-out: EGFR mutants L858R/T790M.

The target in test [6] is T6, EGFR mutant L858R (Homo sapiens, UniProt P00533, L858R).
T6 construct: truncated human JAK3, EGFR mutants such as del E746-A750; purchased Carna Biosciences
T6 sequence (P00533 669-1210 L858R limits assumed): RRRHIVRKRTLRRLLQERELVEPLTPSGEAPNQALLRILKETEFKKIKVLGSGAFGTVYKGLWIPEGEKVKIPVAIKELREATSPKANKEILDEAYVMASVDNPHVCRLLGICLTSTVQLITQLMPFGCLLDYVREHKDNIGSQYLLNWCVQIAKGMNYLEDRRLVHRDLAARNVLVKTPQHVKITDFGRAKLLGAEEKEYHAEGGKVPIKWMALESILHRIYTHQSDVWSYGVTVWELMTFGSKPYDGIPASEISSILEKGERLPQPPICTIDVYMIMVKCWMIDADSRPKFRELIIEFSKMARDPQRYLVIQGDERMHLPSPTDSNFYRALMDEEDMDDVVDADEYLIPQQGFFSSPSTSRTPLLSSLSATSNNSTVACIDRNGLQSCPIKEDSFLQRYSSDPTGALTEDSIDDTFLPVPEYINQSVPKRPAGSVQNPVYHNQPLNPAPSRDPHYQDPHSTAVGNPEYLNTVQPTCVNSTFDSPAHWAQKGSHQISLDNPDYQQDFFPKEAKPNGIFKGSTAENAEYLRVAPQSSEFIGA
Description: Kinase inhibition assay, EGFR L858R.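 Further: truncated human EGFR L858R kinase with compound preincubation, ULight-PolyGT peptide phosphorylation read by Europium-antibody Lance detection, IC50.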 In kind it is biochemical. The conditions noted are these: read-out: EGFR mutants L858R.

T3 sequence (P00533 669-1210 T790M limits assumed): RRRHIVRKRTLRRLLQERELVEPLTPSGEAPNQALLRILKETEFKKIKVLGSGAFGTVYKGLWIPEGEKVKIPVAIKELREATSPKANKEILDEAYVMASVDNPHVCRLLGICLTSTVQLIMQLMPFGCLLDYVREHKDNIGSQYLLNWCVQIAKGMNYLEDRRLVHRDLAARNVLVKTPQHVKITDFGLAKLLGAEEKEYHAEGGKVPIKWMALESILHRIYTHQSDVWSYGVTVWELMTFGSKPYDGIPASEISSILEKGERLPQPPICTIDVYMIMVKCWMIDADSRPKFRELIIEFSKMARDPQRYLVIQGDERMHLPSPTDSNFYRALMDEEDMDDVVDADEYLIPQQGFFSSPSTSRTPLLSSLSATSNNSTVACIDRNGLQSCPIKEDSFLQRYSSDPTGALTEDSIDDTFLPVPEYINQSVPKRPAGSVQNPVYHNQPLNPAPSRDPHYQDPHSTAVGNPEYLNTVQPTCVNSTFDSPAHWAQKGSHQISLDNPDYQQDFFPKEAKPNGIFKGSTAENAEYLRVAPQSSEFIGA
T1 sequence (P00533 with tags, fused parts or gaps DEL746-750/T790M limits assumed): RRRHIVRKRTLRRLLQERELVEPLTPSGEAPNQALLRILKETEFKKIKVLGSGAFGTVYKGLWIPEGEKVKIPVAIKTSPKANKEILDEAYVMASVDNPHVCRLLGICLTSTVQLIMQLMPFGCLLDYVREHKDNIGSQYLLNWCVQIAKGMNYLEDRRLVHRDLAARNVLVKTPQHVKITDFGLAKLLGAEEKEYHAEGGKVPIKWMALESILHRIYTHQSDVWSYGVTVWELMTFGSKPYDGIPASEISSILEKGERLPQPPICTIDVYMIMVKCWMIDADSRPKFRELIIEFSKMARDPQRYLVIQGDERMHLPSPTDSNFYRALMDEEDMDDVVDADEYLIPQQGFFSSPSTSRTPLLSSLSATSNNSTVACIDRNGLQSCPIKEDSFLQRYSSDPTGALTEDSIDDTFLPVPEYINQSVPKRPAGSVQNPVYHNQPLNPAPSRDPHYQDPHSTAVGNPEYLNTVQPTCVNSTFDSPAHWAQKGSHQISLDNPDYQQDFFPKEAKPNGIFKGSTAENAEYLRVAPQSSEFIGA
T5 sequence (P00533 669-1210 T790M/L858R limits assumed): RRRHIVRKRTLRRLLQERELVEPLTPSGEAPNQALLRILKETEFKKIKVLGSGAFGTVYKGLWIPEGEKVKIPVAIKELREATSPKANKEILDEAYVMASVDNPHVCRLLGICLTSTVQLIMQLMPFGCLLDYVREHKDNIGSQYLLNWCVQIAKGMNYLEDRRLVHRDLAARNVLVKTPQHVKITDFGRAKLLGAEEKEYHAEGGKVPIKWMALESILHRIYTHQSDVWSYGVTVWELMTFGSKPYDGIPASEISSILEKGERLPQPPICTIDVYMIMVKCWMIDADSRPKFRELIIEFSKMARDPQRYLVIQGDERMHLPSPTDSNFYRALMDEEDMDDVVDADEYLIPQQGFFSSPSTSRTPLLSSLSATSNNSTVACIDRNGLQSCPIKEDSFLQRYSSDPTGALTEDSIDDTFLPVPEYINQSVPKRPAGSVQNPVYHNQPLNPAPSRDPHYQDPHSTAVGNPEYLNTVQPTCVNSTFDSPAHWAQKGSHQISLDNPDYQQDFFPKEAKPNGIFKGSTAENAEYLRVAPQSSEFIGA

For the compound `C=CC(=O)Nc1cc(Nc2ncc(C)c(-n3cc(CN4C[C@H](O)[C@H](OC)C4)cn3)n2)c(OC)cc1N(C)CCN(C)C` [Compound 43, N-(2-((2-(dimethylamino)ethyl)(methyl)amino)-5-(4-(4-(((3S,4R)-3-hydroxy-4-methoxypyrrolidin-1-yl)methyl)-1H-pyrazol-1-yl)-5-methylpyrimidin-2-ylamino)-4-methoxyphenyl)acrylamide], the pIC50 in test [1] was more than 7.70; in test [2], less than 6.00; in test [3], more than 7.70; in test [4] it was more than 7.70; in test [5] it was more than 7.70; in test [6], more than 7.70.

As to `C=CC(=O)Nc1cc(Nc2ncc(C)c(-n3cc(CN4CC[C@H](O)C4)c(C)n3)n2)c(OC)cc1N1CCOCC1` [Compound 28, (S)—N-(5-(4-(4-((3-hydroxypyrrolidin-1-yl)methyl)-3-methyl-1H-pyrazol-1-yl)-5-methylpyrimidin-2-ylamino)-4-methoxy-2-morpholinophenyl)acrylamide], the pIC50 was more than 7.70 in test [1]; 6.00 to 6.70 in test [2]; more than 7.70 in test [3]; more than 7.70 in test [4]; more than 7.70 in test [5]; more than 7.70 in test [6].

As to `C=CC(=O)Nc1cc(Nc2nccc(-n3cc(CN4CCC4)c(C(C)C)n3)n2)c(OC)cc1N1CCOCC1` [Compound 119, N-(5-(4-(4-(azetidin-1-ylmethyl)-3-isopropyl-1H-pyrazol-1-yl)pyrimidin-2-ylamino)-4-methoxy-2-morpholinophenyl)acrylamide], the pIC50 in test [1] is more than 7.70; in test [2], 6.00 to 6.70; in test [3], more than 7.70; in test [4] it was more than 7.70; in test [5] it was more than 7.70; in test [6], more than 7.70.

As to `C=CC(=O)Nc1cc(Nc2ncc(Cl)c(-n3cc(CN(C)C)cn3)n2)c(OC)cc1N1CCOCC1` [Compound 77, N-(5-(5-chloro-4-(4-((dimethylamino)methyl)-1H-pyrazol-1-yl)pyrimidin-2-ylamino)-4-methoxy-2-morpholinophenyl)acrylamide], the pIC50 in test [1] is more than 7.70; in test [2], 6.00 to 6.70; in test [3] it was more than 7.70; in test [4], more than 7.70; in test [5], more than 7.70; in test [6], more than 7.70.

For the compound `Cc1cn(-c2ccnc(Nc3ccc(-c4ccccc4)c(C)c3)n2)cc1CN1CC(O)C1` [Compound 150, 1-((4-methyl-1-(2-(2-methylbiphenyl-4-ylamino)pyrimidin-4-yl)-1H-pyrrol-3-yl)methyl)azetidin-3-ol, reference compound], the pIC50 in test [1] was less than 6.00; in test [2], less than 6.00; in test [3] it was less than 6.00; in test [4], less than 6.00; in test [5] it was 6.00 to 6.70; in test [6] it was less than 6.00.

Take `C=CC(=O)Nc1cc(Nc2nccc(-n3cc(CN(C)C)c(-c4ccc(F)cc4)n3)n2)c(OC)cc1N1CCOCC1` [Compound 6, N-(5-(4-(4-((dimethylamino)methyl)-3-(4-fluorophenyl)-1H-pyrazol-1-yl)pyrimidin-2-ylamino)-4-methoxy-2-morpholinophenyl)acrylamide]: the pIC50 is more than 7.70 in test [1]; less than 6.00 in test [2]; 6.70 to 7.70 in test [3]; 6.70 to 7.70 in test [4]; more than 7.70 in test [5]; 6.70 to 7.70 in test [6].

Take `C=CC(=O)Nc1cc(Nc2nccc(-n3cc(CN4CCC4)c(-c4ccc(F)cc4)n3)n2)c(OC)cc1N1CCOCC1` [Compound 81, N-(5-(4-(4-(azetidin-1-ylmethyl)-3-(4-fluorophenyl)-1H-pyrazol-1-yl)pyrimidin-2-ylamino)-4-methoxy-2-morpholinophenyl)acrylamide]: the pIC50 in test [1] was 6.70 to 7.70; in test [2], less than 6.00; in test [3], 6.00 to 6.70; in test [4], 6.70 to 7.70; in test [5], 6.70 to 7.70; in test [6] it was 6.70 to 7.70.
